Test results published in ChEMBL document CHEMBL3784975 (Bioorg Med Chem Lett, 2016).

Legend:
[1] = Cytotoxicity against human CLL cells after 24 hrs by annexin-V/PI staining based flow cytometry; format: functional, cell-based
[2] = Cytotoxicity against human SJSA1 cells after 48 hrs by crystal violet staining based assay; format: functional, cell-based; conditions: SJSA-1, 48 h
[3] = Cytotoxicity against human […] cells after 48 hrs by crystal violet staining based assay; format: functional, cell-based
A-431 = assay: Cytotoxicity against human A431 cells after 48 hrs by crystal violet staining based assay; format: functional, cell-based; conditions: A-431, 48 h
[4] = Cytotoxicity against human A3 cells after 48 hrs by crystal violet staining based assay; format: functional, cell-based; conditions: A3, 48 h
HeLa = assay: Cytotoxicity against human HeLa cells after 24 hrs by [3H]-thymidine incorporation assay; format: functional, cell-based
[5] = Cytotoxicity against human IGROV cells after 48 hrs by crystal violet staining based assay; format: functional, cell-based
[6] = Half life of compound in water at 25 deg C; format: physicochemical
[7] = Half life of compound at pH 5; format: physicochemical
[8] = Cytotoxicity against human B cells assessed as cell viability after 24 hrs by annexin V/propidium iodide staining based flow cytometric analysis
[9] = Cytotoxicity against human CLL cells after 24 hrs by annexin-V/PI staining based flow cytometry in presence of human plasma protein; format: functional, cell-based
Plasma = assay: Metabolic stability in human plasma assessed as drug recovery; format: ADME, cell-free
[10] = Cytotoxicity against human T cells assessed as cell viability after 24 hrs by annexin V/propidium iodide staining based flow cytometric analysis
[11] = Cytotoxicity against human CLL cells after 24 hrs by annexin-V/PI staining based flow cytometry in presence of fetal bovine serum; format: functional, cell-based
[12] = Plasma protein binding in human by liquid chromatography-mass spectrometric analysis; format: ADME, cell-free

SMILES | IC50 [1] | IC50 (HeLa) | also measured
CN1C(=O)N[C@H]2[C@@H]3NC(=O)c4cc(Br)c(Br)n4[C@@H]3C[C@]21O | > 30 µM | 7.85 µM | IC50 [2]: > 1 µM; IC50 [3]: > 1 µM; IC50 (A-431): > 1 µM; IC50 [4]: > 1 µM; IC50 [5]: > 1 µM
CN1C(=O)N[C@H]2[C@@H]3NC(=O)c4cc(I)c(Br)n4[C@@H]3C[C@]21O | – | > 20 µM | –
CC(=O)CCO[C@@]12C[C@@H]3[C@@H](NC(=O)c4ccc(Br)n43)[C@@H]1NC(=O)N2C | 5.74 µM | 1.72 µM | half-life [6]: 16 h
CN1C(=O)N[C@H]2[C@@H]3NC(=O)c4c(Br)c(Br)c(Br)n4[C@@H]3C[C@]21O | > 10 µM | > 20 µM | –
CN1C(=O)N[C@H]2[C@@H]3NC(=O)c4ccc(Br)n4[C@@H]3C[C@]21OCCCc1cn(CCCC(=O)NCc2ccccc2)nn1 | > 10 µM | > 20 µM | –
CN1C(=O)N[C@H]2[C@@H]3NC(=O)c4cc(C#Cc5ccccc5)c(Br)n4[C@@H]3C[C@]21O | > 10 µM | > 20 µM | –
CN1C(=O)N[C@H]2[C@@H]3NC(=O)c4cc(-c5ccccc5)c(Br)n4[C@@H]3C[C@]21O | > 10 µM | > 20 µM | –
CN1C(=O)N[C@H]2[C@@H]3NC(=O)c4ccc(Br)n4[C@@H]3C[C@]21N | > 30 µM | 17 µM | t1/2 [7]: 170 h
Cc1c(Br)c(Br)n2c1C(=O)N[C@@H]1[C@H]2C[C@]2(O)[C@H]1NC(=O)N2C | – | > 20 µM | –
Cc1cc2n(c1Br)[C@@H]1C[C@]3(O)[C@@H](NC(=O)N3C)[C@@H]1NC2=O | 7.12 µM | 4.53 µM | –
CC(=O)c1cc2n(c1Br)[C@@H]1C[C@]3(O)[C@@H](NC(=O)N3C)[C@@H]1NC2=O | > 10 µM | > 20 µM | –
CN1C(=O)N[C@H]2[C@@H]3NC(=O)c4cc(-c5ccccc5)c(-c5ccccc5)n4[C@@H]3C[C@]21O | > 10 µM | > 20 µM | –
CN1C(=O)N[C@H]2[C@@H]3NC(=O)c4cc(Cl)c(Br)n4[C@@H]3C[C@]21O | 2.82 µM | – | Activity [8]: Toxic; IC50 [2]: 0.56 µM; IC50 [9]: 2.82 µM; IC50 [3]: 0.54 µM; IC50 (A-431): 0.34 µM; Drug recovery (Plasma): 102.1%; IC50 [4]: 0.47 µM; Activity [10]: Toxic; IC50 [5]: 0.26 µM; IC50 [11]: 2.65 µM; PPB [12]: 46.5%
Cc1ccn2c1C(=O)N[C@@H]1[C@H]2C[C@]2(O)[C@H]1NC(=O)N2C | – | > 20 µM | –
Cc1ccc2n1[C@@H]1C[C@]3(O)[C@@H](NC(=O)N3C)[C@@H]1NC2=O | 9.77 µM | > 20 µM | IC50 [2]: > 1 µM; IC50 [3]: 0.28 µM; IC50 (A-431): > 1 µM; IC50 [4]: > 1 µM; IC50 [5]: 0.31 µM
Cc1c(C)c2n(c1Br)[C@@H]1C[C@]3(O)[C@@H](NC(=O)N3C)[C@@H]1NC2=O | – | > 20 µM | –
C#CCCCO[C@@]12C[C@@H]3[C@@H](NC(=O)c4ccc(Br)n43)[C@@H]1NC(=O)N2C | > 10 µM | > 20 µM | –
CN1C(=O)c2ccc(Br)n2[C@@H]2C[C@]3(O)[C@@H](NC(=O)N3C)[C@@H]21 (racemic) | – | > 20 µM | –
CN1C(=O)N[C@H]2[C@@H]3NC(=O)c4ccc(Br)n4[C@@H]3C[C@]21O [AGELASTATIN A] | 0.71 µM | 0.084 µM | Activity [8]: Toxic; IC50 [2]: 0.44 µM; IC50 [9]: 0.71 µM; IC50 [3]: 0.32 µM; IC50 (A-431): 0.46 µM; IC50 [4]: 0.38 µM; Activity [10]: Toxic; IC50 [5]: 0.17 µM; IC50 [11]: 0.93 µM
